The text below walks through data of ChEMBL document CHEMBL1150999, “Synthesis and biological activities of new conformationally fixed analogues of ()-indolactam-V, the core structure of tumor-promoting teleocidins” (1995).

Molecules are shown by their SMILES.

What all share (type): functional
Assay [1] has as its system Human gammaherpesvirus 4. Description: In vitro ability of compound to induce Epstein-Barr virus early antigen (EBV-EA) activity at 10 e-5 M concentration.
Assay [2] relates to Human gammaherpesvirus 4. Nature of the assay: In vitro ability of compound to induce Epstein-Barr virus early antigen (EBV-EA) activity at 10 e-7 M concentration.
Assay [3] has as its system Human gammaherpesvirus 4. Description: In vitro ability of compound to induce Epstein-Barr virus early antigen (EBV-EA) activity at 10 e-6 M concentration.

Take `Cc1ccc2[nH]cc3c2c1N(C)[C@@H](C(C)C)C(=O)N[C@H](CO)C3`: the Activity in assay [1] was 9.4%; in assay [2] it was 0.3%; in assay [3] it was 1.4%.
On to `Cc1cc2ccc3[nH]cc4c3c2n1[C@@H](C(C)C)C(=O)N[C@H](CO)C4`, for which the Activity in assay [1] amounted to 36.1%; in assay [2] it was 12.7%; in assay [3], 34%.
As to `CC(C)[C@H]1C(=O)N[C@H](CO)Cc2c[nH]c3ccc4c(c23)N1[C@@H](C)C4`, the results for the Activity in assay [1], in assay [2] and in assay [3] were 17.8%, 0.2% and 0.8%, respectively.
Regarding `CC(C)[C@H]1C(=O)N[C@H](CO)Cc2c[nH]c3ccc4c(c23)N1[C@H](C)C4`, the figures for the Activity in assay [1], in assay [2] and in assay [3] were 16%, 1.2% and 14.1%, respectively.
In the same order, the values of `CC(C)[C@H]1C(=O)N[C@H](CO)Cc2c[nH]c3cccc(c23)N1C` [INDOLACTUM] are 35%, 7.7% and 19%.
